Assays:
[1] = Solution stability of Epoprostenol in presence of 50 mg/ml of arginine; assay type: physicochemical; details: 50 mg/ml arginine
Experimental: A solution of epoprostenol and 50 mg/ml of arginine was prepared and the stability of this solution at 5° C. was determined. The resulting data are presented in the Table 4: Stability of the same formulation was also conducted at pH 11.2; and the data are summarized in the Table 5 below: […]

[2] = Dilution stability of reconstituted lyophile diluted to 10 μg/ml in IV fluids; assay type: physicochemical
Experimental: Dilution studies were also conducted to determine whether the formulations of the present invention are suitable for IV infusion at room temperature. The stability studies were conducted at 25° C. and 30° C. to mimic the temperatures during the infusion over a 24 hour period in various large volume parenteral solutions.
To this end, the stability of the epoprostenol lyophile reconstituted and diluted to 10 μg/ml in normal saline was stability monitored for 48 hours at 25° C. and 30° C. Dilution stability of all three primary formulation batches was conducted in normal saline at 25° C. and 30° C. In addition to these studies, dilution stability studies on one lot of primary formulation batch were conducted at 25° C. and 30° C. in 5% Dextrose (D5W), WFI (in-house) and lactated Ringer's solution.
For the dilution studies, each vial was reconstituted with 5 ml of the diluent. The clear solution was transferred into a 50 ml volumetric flask. The vial was rinsed with 5 ml of diluent three times and the rinses were transferred to the flask. The contents of the flask were further diluted with the diluent and made up to the mark with the diluent. The pH of the diluted solution was measured and recorded. The contents of the flask were held at the temperatures noted and analyzed at predetermined time intervals.

[3] = Solution stability of reconstituted lyophile (epoprostenol 0.5 mg/ml, arginine 50 mg/ml, pH 13.0); assay type: physicochemical; details: 50 mg/ml arginine
Experimental: In the next set of experiments, the pH of the solution containing epoprostenol and arginine was adjusted to 13.0 with sodium hydroxide, and lyophilized. Upon reconstitution of the lyophile with 1 ml of Water for Injection, the reconstituted solution contains 50 mg/ml arginine and 0.5 mg/ml epoprostenol. The pH of the solution is 13.0. The stability data are presented in Table 6 for 5° C. and Table 7 for 29° C. below: […]

[4] = cited from earlier work

CCCCC[C@H](O)/C=C/C1[C@H]2C/C(=C/CCCC(=O)[O-])OC2C[C@H]1O.[Na+] (stereo partly drawn) [Epoprostenol, (5Z,9(alpha),11(alpha),13E,15S)-6,9-epoxy-11,15-dihydroxyprosta-5,13-dien-1-oic acid]
% Assay of Epoprostenol by Area ([1]; pH 11.2, 5 ± 1° C., 4.0 HRS): 99.5%
Area % of 6-keto et al. impurities ([1]; pH 11.2, 5 ± 1° C., 4.0 HRS): 0.28%
% Assay of Epoprostenol by Area ([1]; pH 11.2, 5 ± 1° C., 7.0 HRS): 99.0%
Area % of 6-keto et al. impurities ([1]; pH 11.2, 5 ± 1° C., 7.0 HRS): 0.39%
% Assay of Epoprostenol by Area ([1]; pH 11.2, 5 ± 1° C., 10.0 HRS): 98.6%
Area % of 6-keto et al. impurities ([1]; pH 11.2, 5 ± 1° C., 10.0 HRS): 0.53%
% Assay of Epoprostenol by Area ([1]; pH 11.2, 5 ± 1° C., 11.5 HRS): 98.3%
Area % of 6-keto et al. impurities ([1]; pH 11.2, 5 ± 1° C., 11.5 HRS): 0.57%
% Assay of Epoprostenol by Area ([1]; pH 11.2, 5 ± 1° C., 17.5 HRS): 97.3%
Area % of 6-keto et al. impurities ([1]; pH 11.2, 5 ± 1° C., 17.5 HRS): 0.80%
% Assay of Epoprostenol by Area ([1]; pH 11.2, 5 ± 1° C., Initial): 100.0%
loss in potency ([1]; pH 11.9, 5° C., at 53 hours): 1.4%
% Assay of Epoprostenol by Area ([1]; pH 11.9, 5 ± 1° C., 2 HRS): 99.9%
Area % of 6-keto et al. impurities ([1]; pH 11.9, 5 ± 1° C., 2 HRS): 0.19%
% Assay of Epoprostenol by Area ([1]; pH 11.9, 5 ± 1° C., 4 HRS): 99.8%
Area % of 6-keto et al. impurities ([1]; pH 11.9, 5 ± 1° C., 4 HRS): 0.19%
% Assay of Epoprostenol by Area ([1]; pH 11.9, 5 ± 1° C., 6 HRS): 99.8%
Area % of 6-keto et al. impurities ([1]; pH 11.9, 5 ± 1° C., 6 HRS): 0.21%
% Assay of Epoprostenol by Area ([1]; pH 11.9, 5 ± 1° C., 8 HRS): 99.7%
Area % of 6-keto et al. impurities ([1]; pH 11.9, 5 ± 1° C., 8 HRS): 0.22%
% Assay of Epoprostenol by Area ([1]; pH 11.9, 5 ± 1° C., 10 HRS): 99.6%
Area % of 6-keto et al. impurities ([1]; pH 11.9, 5 ± 1° C., 10 HRS): 0.23%
% Assay of Epoprostenol by Area ([1]; pH 11.9, 5 ± 1° C., 12.5 HRS): 99.6%
Area % of 6-keto et al. impurities ([1]; pH 11.9, 5 ± 1° C., 12.5 HRS): 0.25%
% Assay of Epoprostenol by Area ([1]; pH 11.9, 5 ± 1° C., 14.5 HRS): 99.6%
Area % of 6-keto et al. impurities ([1]; pH 11.9, 5 ± 1° C., 14.5 HRS): 0.26%
% Assay of Epoprostenol by Area ([1]; pH 11.9, 5 ± 1° C., 39 HRS): 99.5%
Area % of 6-keto et al. impurities ([1]; pH 11.9, 5 ± 1° C., 39 HRS): 0.63%
% Assay of Epoprostenol by Area ([1]; pH 11.9, 5 ± 1° C., 53 HRS): 98.6%
Area % of 6-keto et al. impurities ([1]; pH 11.9, 5 ± 1° C., 53 HRS): 1.15%
% Assay of Epoprostenol by Area ([1]; pH 11.9, 5 ± 1° C., 77 HRS): 92.7%
Area % of 6-keto et al. impurities ([1]; pH 11.9, 5 ± 1° C., 77 HRS): 2.05%
% Assay of Epoprostenol by Area ([1]; pH 11.9, 5 ± 1° C., 100 HRS): 92.5%
Area % of 6-keto et al. impurities ([1]; pH 11.9, 5 ± 1° C., 100 HRS): 2.10%
% Assay of Epoprostenol by Area ([1]; pH 11.9, 5 ± 1° C., 124 HRS): 92.5%
Area % of 6-keto et al. impurities ([1]; pH 11.9, 5 ± 1° C., 124 HRS): 2.25%
% Assay of Epoprostenol by Area ([1]; pH 11.9, 5 ± 1° C., Initial): 100.0%
Area % of 6-keto et al. impurities ([1]; pH 11.9, 5 ± 1° C., Initial): 0.15%
drug degraded ([2]; D5W, after 8 hours): approximately 84%
stability compared with normal saline ([2]; lactated Ringer's solution, 25° C. and 30° C.): comparable to that of normal saline
potency maintained ([2]; water, 30° C., for more than 18 hours): greater than 90%
loss of potency ([3]; pH 13.0, 5° C., over 480 hours): 3.4%
loss of potency on average ([3]; pH 13.0, 5° C., over 480 hours): 0.007 %/hour
% Assay of Epoprostenol by Area ([3]; pH 13.0, 5 ± 1° C., 14.5 Hours): 99.8%
Area % of 6-keto PGF et al. impurities ([3]; pH 13.0, 5 ± 1° C., 14.5 Hours): 0.20%
% Assay of Epoprostenol by Area ([3]; pH 13.0, 5 ± 1° C., 53 Hours): 98.8%
% Assay of Epoprostenol by Area ([3]; pH 13.0, 5 ± 1° C., 124 Hours): 98.0%
Area % of 6-keto PGF et al. impurities ([3]; pH 13.0, 5 ± 1° C., 124 Hours): 0.40%
% Assay of Epoprostenol by Area ([3]; pH 13.0, 5 ± 1° C., 148 Hours): 97.6%
Area % of 6-keto PGF et al. impurities ([3]; pH 13.0, 5 ± 1° C., 148 Hours): 0.45%
% Assay of Epoprostenol by Area ([3]; pH 13.0, 5 ± 1° C., 192 Hours): 97.3%
Area % of 6-keto PGF et al. impurities ([3]; pH 13.0, 5 ± 1° C., 192 Hours): 0.47%
% Assay of Epoprostenol by Area ([3]; pH 13.0, 5 ± 1° C., 240 Hours): 96.9%
Area % of 6-keto PGF et al. impurities ([3]; pH 13.0, 5 ± 1° C., 240 Hours): 0.61%
% Assay of Epoprostenol by Area ([3]; pH 13.0, 5 ± 1° C., 480 Hours): 96.6%
Area % of 6-keto PGF et al. impurities ([3]; pH 13.0, 5 ± 1° C., 480 Hours): 0.70%
% Assay of Epoprostenol by Area ([3]; pH 13.0, 5 ± 1° C., Initial): 100.0%
Area % of 6-keto PGF et al. impurities ([3]; pH 13.0, 5 ± 1° C., Initial): 0.16%
degradation ([3]; pH 13.0, 29° C., in 12 hours): 1.5%
% Assay of Epoprostenol by Area ([3]; pH 13.0, 29 ± 1° C., 1 HRS): 100.0%
Area % of 6-keto et al. impurities ([3]; pH 13.0, 29 ± 1° C., 1 HRS): 0.087%
% Assay of Epoprostenol by Area ([3]; pH 13.0, 29 ± 1° C., 5 HRS): 99.8%
Area % of 6-keto et al. impurities ([3]; pH 13.0, 29 ± 1° C., 5 HRS): 0.18%
% Assay of Epoprostenol by Area ([3]; pH 13.0, 29 ± 1° C., 7 HRS): 99.3%
Area % of 6-keto et al. impurities ([3]; pH 13.0, 29 ± 1° C., 7 HRS): 0.21%
% Assay of Epoprostenol by Area ([3]; pH 13.0, 29 ± 1° C., 8 HRS): 99.2%
Area % of 6-keto et al. impurities ([3]; pH 13.0, 29 ± 1° C., 8 HRS): 0.25%
% Assay of Epoprostenol by Area ([3]; pH 13.0, 29 ± 1° C., 9 HRS): 99.1%
Area % of 6-keto et al. impurities ([3]; pH 13.0, 29 ± 1° C., 9 HRS): 0.29%
% Assay of Epoprostenol by Area ([3]; pH 13.0, 29 ± 1° C., 10 HRS): 98.8%
Area % of 6-keto et al. impurities ([3]; pH 13.0, 29 ± 1° C., 10 HRS): 0.28%
% Assay of Epoprostenol by Area ([3]; pH 13.0, 29 ± 1° C., 11 HRS): 98.6%
Area % of 6-keto et al. impurities ([3]; pH 13.0, 29 ± 1° C., 11 HRS): 0.29%
% Assay of Epoprostenol by Area ([3]; pH 13.0, 29 ± 1° C., 12 HRS): 98.5%
Area % of 6-keto et al. impurities ([3]; pH 13.0, 29 ± 1° C., 12 HRS): 0.30%
% Assay of Epoprostenol by Area ([3]; pH 13.0, 29 ± 1° C., 13 HRS): 98.1%
Area % of 6-keto et al. impurities ([3]; pH 13.0, 29 ± 1° C., 13 HRS): 0.38%
% Assay of Epoprostenol by Area ([3]; pH 13.0, 29 ± 1° C., 14 HRS): 98.0%
Area % of 6-keto et al. impurities ([3]; pH 13.0, 29 ± 1° C., 14 HRS): 0.37%
% Assay of Epoprostenol by Area ([3]; pH 13.0, 29 ± 1° C., 15 HRS): 97.8%
Area % of 6-keto et al. impurities ([3]; pH 13.0, 29 ± 1° C., 15 HRS): 0.39%
% Assay of Epoprostenol by Area ([3]; pH 13.0, 29 ± 1° C., 24 HRS): 97.5%
Area % of 6-keto et al. impurities ([3]; pH 13.0, 29 ± 1° C., 24 HRS): 0.39%
% Assay of Epoprostenol by Area ([3]; pH 13.0, 29 ± 1° C., 36 HRS): 97.5%
Area % of 6-keto et al. impurities ([3]; pH 13.0, 29 ± 1° C., 36 HRS): 0.45%
% Assay of Epoprostenol by Area ([3]; pH 13.0, 29 ± 1° C., Initial): 100.0%
Area % of 6-keto et al. impurities ([3]; pH 13.0, 29 ± 1° C., Initial): 0.072%

N=C(N)NCCC[C@H](N)C(=O)O [arginine]
basic pKa [4]: 10.8
